Test results published in patent US20230416248A1, “COMPOUNDS AND USES THEREOF” (Foghorn Therapeutics Inc., priority 2020, published 2023).
Like-named read-outs stand apart in the source and are kept apart here.

Columns and labels:
BRG-1 = molecular target: T1, BRG-1 (Homo sapiens, UniProt P51532); assay: ATPase catalytic activity of BRG-1, ADP-Glo in vitro biochemical assay; details: 30 nM BRG-1, 400 μM ATP, read-out: BRG1 IC50
T1 construct: made in house; host or cells: High Five insect cells
Outline: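 Signal reflects ADP produced by the enzyme, quantified as luminescence after unused ATP is cleared and ADP is reconverted to ATP for the luciferase reaction; both steps run at room temperature, 40 and 60 min respectively.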

BRM = molecular target: T2, BRM (Homo sapiens, UniProt P51531); assay: ATPase catalytic activity of BRM, ADP-Glo in vitro biochemical assay; details: for IC50: 30 nM BRM, 400 μM ATP; for Ratio* (BRG1 IC50 (μM) divided by BRM IC50 (μM)): selectivity ratio BRG1 IC50 / BRM IC50
T2 construct: made in house; host or cells: High Five insect cells
Outline: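 Recombinant BRM (30 nM) hydrolysed 400 μM ATP with 20 nM salmon sperm DNA in pH 8 Tris buffer containing 20 mM MgCl2, 50 mM NaCl, 0.1% Tween-20 and 1 mM DTT, 1 h at room temperature. ADP formed was quantified by ADP-Glo luminescence.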

[1] = ATPase catalytic activity, ADP-Glo

T1 sequence (P51532 whole entry): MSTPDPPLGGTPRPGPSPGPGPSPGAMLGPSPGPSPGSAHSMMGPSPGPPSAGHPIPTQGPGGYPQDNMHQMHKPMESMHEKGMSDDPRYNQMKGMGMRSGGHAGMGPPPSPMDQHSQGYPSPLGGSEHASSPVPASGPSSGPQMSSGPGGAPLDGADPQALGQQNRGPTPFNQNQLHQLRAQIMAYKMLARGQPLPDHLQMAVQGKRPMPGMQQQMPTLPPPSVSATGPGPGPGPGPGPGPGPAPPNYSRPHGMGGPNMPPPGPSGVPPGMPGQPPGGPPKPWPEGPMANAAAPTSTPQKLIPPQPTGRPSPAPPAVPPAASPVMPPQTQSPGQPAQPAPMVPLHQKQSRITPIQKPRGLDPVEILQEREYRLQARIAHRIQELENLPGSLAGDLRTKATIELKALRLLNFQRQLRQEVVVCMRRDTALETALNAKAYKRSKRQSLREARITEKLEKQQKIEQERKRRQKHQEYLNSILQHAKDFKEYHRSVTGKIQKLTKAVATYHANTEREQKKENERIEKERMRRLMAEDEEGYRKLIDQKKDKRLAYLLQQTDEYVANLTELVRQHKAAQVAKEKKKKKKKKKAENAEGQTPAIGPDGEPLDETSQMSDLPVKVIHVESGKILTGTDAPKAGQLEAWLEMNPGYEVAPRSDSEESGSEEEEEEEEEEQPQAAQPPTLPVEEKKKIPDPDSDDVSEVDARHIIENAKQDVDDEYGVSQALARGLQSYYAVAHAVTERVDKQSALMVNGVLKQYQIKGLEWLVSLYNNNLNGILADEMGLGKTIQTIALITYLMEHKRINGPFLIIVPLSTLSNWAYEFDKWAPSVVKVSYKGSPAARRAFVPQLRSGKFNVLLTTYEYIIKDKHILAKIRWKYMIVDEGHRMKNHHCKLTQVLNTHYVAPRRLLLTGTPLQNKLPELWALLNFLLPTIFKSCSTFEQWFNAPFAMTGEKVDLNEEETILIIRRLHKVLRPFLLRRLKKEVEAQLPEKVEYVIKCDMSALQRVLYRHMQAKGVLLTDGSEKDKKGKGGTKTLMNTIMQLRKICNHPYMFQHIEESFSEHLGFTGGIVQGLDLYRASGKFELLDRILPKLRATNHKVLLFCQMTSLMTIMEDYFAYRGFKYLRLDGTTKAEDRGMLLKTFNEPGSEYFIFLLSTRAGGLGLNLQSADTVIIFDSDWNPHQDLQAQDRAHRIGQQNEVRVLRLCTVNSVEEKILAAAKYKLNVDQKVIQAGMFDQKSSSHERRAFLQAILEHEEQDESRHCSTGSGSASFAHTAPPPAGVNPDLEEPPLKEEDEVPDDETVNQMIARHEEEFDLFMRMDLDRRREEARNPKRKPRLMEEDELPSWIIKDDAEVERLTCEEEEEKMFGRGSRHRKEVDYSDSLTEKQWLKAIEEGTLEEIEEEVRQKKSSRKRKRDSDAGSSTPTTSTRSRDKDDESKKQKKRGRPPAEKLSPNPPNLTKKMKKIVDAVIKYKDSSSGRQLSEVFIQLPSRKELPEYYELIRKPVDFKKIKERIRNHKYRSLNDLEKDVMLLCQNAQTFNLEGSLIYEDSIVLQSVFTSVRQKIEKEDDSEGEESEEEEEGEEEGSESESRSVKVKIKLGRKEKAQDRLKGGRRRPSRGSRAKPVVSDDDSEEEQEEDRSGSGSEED
T2 sequence (P51531 whole entry): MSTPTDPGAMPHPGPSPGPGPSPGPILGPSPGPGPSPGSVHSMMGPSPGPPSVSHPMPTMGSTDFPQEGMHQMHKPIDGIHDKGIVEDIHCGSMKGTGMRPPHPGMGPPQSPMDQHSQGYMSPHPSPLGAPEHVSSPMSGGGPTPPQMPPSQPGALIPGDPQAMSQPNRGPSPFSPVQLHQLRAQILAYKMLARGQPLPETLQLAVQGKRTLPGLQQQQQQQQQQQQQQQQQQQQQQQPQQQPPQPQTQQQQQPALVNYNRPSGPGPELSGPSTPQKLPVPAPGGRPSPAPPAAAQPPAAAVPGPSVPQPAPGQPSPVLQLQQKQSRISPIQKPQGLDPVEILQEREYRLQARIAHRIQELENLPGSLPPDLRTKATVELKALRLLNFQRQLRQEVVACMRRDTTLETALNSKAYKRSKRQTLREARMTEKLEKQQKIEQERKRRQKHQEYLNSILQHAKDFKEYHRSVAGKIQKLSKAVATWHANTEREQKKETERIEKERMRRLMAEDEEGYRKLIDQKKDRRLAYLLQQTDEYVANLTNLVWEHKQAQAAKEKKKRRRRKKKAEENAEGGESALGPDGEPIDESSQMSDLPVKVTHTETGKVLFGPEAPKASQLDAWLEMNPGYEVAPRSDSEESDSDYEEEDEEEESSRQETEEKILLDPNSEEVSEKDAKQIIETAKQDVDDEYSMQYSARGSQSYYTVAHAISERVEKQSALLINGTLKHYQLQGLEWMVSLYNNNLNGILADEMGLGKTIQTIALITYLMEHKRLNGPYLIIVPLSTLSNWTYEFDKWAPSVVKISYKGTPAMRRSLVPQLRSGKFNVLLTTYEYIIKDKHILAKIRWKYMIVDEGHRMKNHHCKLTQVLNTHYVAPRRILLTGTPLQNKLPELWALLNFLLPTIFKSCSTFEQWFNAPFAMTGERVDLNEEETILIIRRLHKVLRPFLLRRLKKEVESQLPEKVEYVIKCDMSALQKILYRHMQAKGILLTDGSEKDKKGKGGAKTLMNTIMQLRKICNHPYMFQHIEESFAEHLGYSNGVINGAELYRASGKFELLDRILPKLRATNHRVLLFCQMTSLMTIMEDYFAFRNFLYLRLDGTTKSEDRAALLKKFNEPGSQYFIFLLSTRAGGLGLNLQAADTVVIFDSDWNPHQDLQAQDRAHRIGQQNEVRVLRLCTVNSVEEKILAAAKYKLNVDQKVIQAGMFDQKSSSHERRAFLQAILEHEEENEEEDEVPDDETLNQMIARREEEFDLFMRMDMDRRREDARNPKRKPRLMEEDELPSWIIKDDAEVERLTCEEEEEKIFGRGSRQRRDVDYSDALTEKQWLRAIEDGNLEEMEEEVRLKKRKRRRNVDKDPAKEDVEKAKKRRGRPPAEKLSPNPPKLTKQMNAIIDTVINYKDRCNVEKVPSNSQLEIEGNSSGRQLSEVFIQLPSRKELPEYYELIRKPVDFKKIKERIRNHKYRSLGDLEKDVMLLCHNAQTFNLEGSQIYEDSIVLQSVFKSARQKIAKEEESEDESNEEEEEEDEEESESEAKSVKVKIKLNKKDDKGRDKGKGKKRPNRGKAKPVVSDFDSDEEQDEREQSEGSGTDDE

Row | Structure (SMILES) | IC50 (BRG-1; [1]) | IC50 (BRM; [1]) | Ratio* (BRM; ratio of BRG1 IC50 to BRM IC50) | IC50 (BRG-1; ADP-Glo ATPase assay) | IC50 (BRM; ADP-Glo ATPase assay) | Ratio* (BRG1 IC50 (μM) divided by BRM IC50 (μM)) (BRM) | Ratio* (BRM; ratio BRG1 IC50 / BRM IC50)
1 | CO[C@@H]1COc2c(-c3ccc4cnc(CNC(=O)c5ccc6c(c5)S(=O)(=O)CCOC6)cc4n3)cccc2N(C)C1 [Compound 614] | 862 nM | 95.1 nM | 9.06 |  |  |  | 
2 | O=C(NCc1cc2nc(-c3cn(C4COC4)nc3C3CC3)ccc2cn1)c1ccc2c(c1)S(=O)(=O)CCOC2 [Compound 194] |  |  |  | 2780 nM | 219 nM | 12.69 | 
3 | C[C@@H]1C[C@@H](N(C)c2cccc(-c3ccc4cnc(CNC(=O)c5ccc6c(c5)S(=O)(=O)CCOC6)cc4n3)n2)C[C@H](C)O1 [Compound 334] | 377 nM | 21.2 nM | 17.82 |  |  |  | 
4 | C[C@@H]1CN(c2cccc(-c3ccc4cnc(CNC(=O)c5ccc6c(c5)S(=O)(=O)CCC5(CC5)O6)cc4n3)n2)C[C@H](C)O1 [Compound 704] |  |  |  | 2110 nM | 91.1 nM |  | 23.18
5 | COC[C@@H](C)Nc1cccc(-c2ccc3cnc(CNC(=O)c4ccc(C(F)F)c(S(C)(=O)=O)c4)cc3n2)n1 [Compound 60] |  |  |  | 5000 nM | 789 nM | 6.34 | 
6 | C[C@@H]1CN(c2cccc(-c3ccc4cnc([C@H](C)NC(=O)c5ccc6c(c5)S(=O)(=O)[C@@H](C)COC6)cc4n3)n2)C[C@H](C)O1 [Compound 325] | 174 nM | 10.6 nM | 16.33 |  |  |  | 
7 | O=C(NCc1cc2nc(-c3cncc(C4CC4)n3)ccc2cn1)c1ccc2c(c1)S(=O)(=O)CCOC2 [Compound 305] |  |  |  | 279 nM | 30 nM | 9.32 | 
8 | COCCN1CCCc2c(-c3ccc4cnc(CNC(=O)c5ccc6c(c5)S(=O)(=O)CCOC6)cc4n3)cccc21 [Compound 84] |  |  |  | 570 nM | 121 nM | 4.71 | 
9 | COc1cc(C(F)F)ccc1-c1ccc2cnc(CNC(=O)c3ccc4c(c3)S(=O)(=O)CCOC4)cc2n1 [Compound 118] |  |  |  | 252 nM | 24.9 nM | 10.11 | 
10 | O=C(NCc1cc2nc(-c3cncc(C4CC4)n3)ccc2cn1)c1cc(F)c2c(c1)S(=O)(=O)CCOC2 [Compound 287] |  |  |  | 594 nM | 24.2 nM | 24.53 | 
11 | C[C@@H]1CN(c2cccc(-c3ccc4cnc(CNC(=O)c5cc(F)c6c(c5)S(=O)(=O)CCO[C@H]6C)cc4n3)n2)C[C@H](C)O1 [Compound 522] | 62.1 nM | 13.8 nM | 4.48 |  |  |  | 
12 | COCCN(C)c1cccc(-c2ccc3cnc(CNC(=O)c4ccc(C(F)F)c(S(C)(=O)=O)c4)cc3n2)n1 [Compound 110] |  |  |  | 407 nM | 20.9 nM | 19.51 | 
13 | COc1c(-c2ccc3cnc(CNC(=O)c4ccc5c(c4)S(=O)(=O)CCOC5)cc3n2)cccc1C1CC1 [Compound 430] | 2410 nM | 477 nM | 5.06 |  |  |  | 
14 | [2H]C1([2H])OC([2H])([2H])[C@@H](C)S(=O)(=O)c2cc(C(=O)NCc3cc4nc(-c5cccc(N6C[C@@H](C)O[C@@H](C)C6)n5)ccc4cn3)ccc21 [Compound 717] |  |  |  | 432 nM | 77 nM |  | 5.61

The remaining lines, values ahead:

Row | IC50 (BRG-1; [1]) | IC50 (BRM; [1]) | Ratio* (BRM; ratio of BRG1 IC50 to BRM IC50) | IC50 (BRG-1; ADP-Glo ATPase assay) | IC50 (BRM; ADP-Glo ATPase assay) | Ratio* (BRG1 IC50 (μM) divided by BRM IC50 (μM)) (BRM) | Ratio* (BRM; ratio BRG1 IC50 / BRM IC50) | Structure (SMILES)
15 | 960 nM | 10.2 nM | 93.83 |  |  |  |  | O=C(NCc1cc2nc(N3CCOc4ccc([C@@H]5CC5(F)F)nc43)ccc2cn1)c1ccc2c(c1)S(=O)(=O)CCOC2 [Compound 702]
16 | 1160 nM | 48 nM | 24.14 |  |  |  |  | O=C(NCc1cc2nc(N3CCCc4ccc(C5CCOC5)nc43)ccc2cn1)c1ccc2c(c1)S(=O)(=O)CCOC2 (stereo not drawn) [Compound 630]
17 |  |  |  | 177 nM | 19.4 nM | 9.11 |  | CO[C@H]1CCN(c2cccc(-c3ccc4cnc(CNC(=O)c5ccc6c(c5)S(=O)(=O)CCOC6)cc4n3)n2)C1 [Compound 201]
18 | 1290 nM | 23.5 nM | 54.81 |  |  |  |  | O=C(NCc1cc2nc(N3CCCc4ccc([C@H]5CC5(F)F)nc43)ccc2cn1)c1ccc2c(c1)S(=O)(=O)CCOC2 [Compound 690]
19 |  |  |  | 46.7 nM | 6.4 nM |  | 7.26 | CN(c1cnc2c(c1)OCCN2c1ccc2cnc(CNC(=O)c3ccc4c(c3)S(=O)(=O)CCOC4)cc2n1)C1CCC1 [Compound 819]
20 |  |  |  | 110 nM | 8.2 nM |  | 13.49 | O=C(NCc1cc2nc(N3CCCc4ccc(OCC5CCO5)cc43)ccc2cn1)c1ccc2c(c1)S(=O)(=O)CCOC2 (stereo not drawn) [Compound 735]
21 | 99.5 nM | 11.7 nM | 8.52 |  |  |  |  | CN(C)c1cnc2c(c1)CCCN2c1ccc2cnc(CNC(=O)c3ccc4c(c3)S(=O)(=O)CCOC4)cc2n1 [Compound 441]
22 |  |  |  | 651 nM | 105 nM |  | 6.21 | CN(C)c1nccc2c1CCCN2c1ccc2cnc(CNC(=O)c3ccc4c(c3)S(=O)(=O)CCOC4)cc2n1 [Compound 836]
23 | 159 nM | 9.5 nM | 16.64 |  |  |  |  | O=C(NCc1cc2nc(N3CCOc4cc(Cl)cnc43)ccc2cn1)c1cc(F)c2c(c1)S(=O)(=O)CCOC2 [Compound 691]
24 |  |  |  | 92.5 nM | 9.3 nM |  | 9.97 | COc1cc(C)nc2c1CCCN2c1ccc2cnc(CNC(=O)c3ccc4c(c3)S(=O)(=O)CCOC4)cc2n1 [Compound 732]
25 | 358 nM | 22.1 nM | 16.22 |  |  |  |  | CCN1CCN(c2ccc3cnc(CNC(=O)c4ccc5c(c4)S(=O)(=O)CCOC5)cc3n2)c2ncccc21 [Compound 615]
26 |  |  |  | 367 nM | 40.5 nM | 9.06 |  | C[C@@H]1COCCN1c1cccc(-c2ccc3cnc(CNC(=O)c4ccc5c(c4)S(=O)(=O)CCOC5)cc3n2)n1 [Compound 181]
27 |  |  |  | 172 nM | 10.5 nM |  | 16.35 | COc1cc(C2CC2)nc2c1CCCN2c1ccc2cnc(CNC(=O)c3ccc4c(c3)S(=O)(=O)CCOC4)cc2n1 [Compound 771]
28 |  |  |  | 3940 nM | 432 nM |  | 9.13 | O=C(NCc1cc2nc(N3CCn4ncc(C5CC5)c4C3)ccc2cn1)c1ccc2c(c1)S(=O)(=O)CCOC2 [Compound 744]
29 |  |  |  | 93.6 nM | 9.6 nM | 9.74 |  | CO[C@H]1CCCN(c2cccc(-c3ccc4cnc(CNC(=O)c5ccc6c(c5)S(=O)(=O)CCOC6)cc4n3)n2)C1 [Compound 93]
30 |  |  |  | 716 nM | 76 nM | 9.43 |  | O=C(NCc1cc2nc(N3CCCc4ccncc43)ccc2cn1)c1ccc2c(c1)S(=O)(=O)CCOC2 [Compound 52]
31 | 119 nM | 7.8 nM | 15.21 |  |  |  |  | Cc1cc2c(nc1C)N(c1ccc3cnc(CNC(=O)c4ccc5c(c4)S(=O)(=O)CCOC5)cc3n1)CCC2 [Compound 463]
32 |  |  |  | 515 nM | 29 nM |  | 17.78 | O=C(NCc1cc2nc(N3CCCc4cnc(C5CC5)nc43)ccc2cn1)c1ccc2c(c1)S(=O)(=O)CCOC2 [Compound 780]
33 |  |  |  | 3900 nM | 1140 nM |  | 3.42 | O=C(NCc1cc2nc(N3CCCc4cccc(Cl)c43)ccc2cn1)c1ccc2c(c1)S(=O)(=O)CCOC2 [Compound 736]
34 |  |  |  | 221 nM | 12.7 nM |  | 17.37 | O=C(NCc1cc2nc(N3CCOc4cc(C5CC5)ncc43)ccc2cn1)c1ccc2c(c1)S(=O)(=O)CCOC2 [Compound 739]
